Values quoted from earlier work, collected in patent US20200000750A1, “Composition for Treating Acute and Chronic Pain” (priority 2018, published 2020).

Tests used:
[1] = system: mitosis, spindle formation; conditions: for antimitotic effect (mitotic or spindle poison): literature; for antagonism of colchicine: literature (Benitez et al. 1954)
[2] = system: acute attacks of gout; conditions: literature; colchiceine at 5 to 8 mg orally
[3] = system: spermatogenesis; conditions: in vivo
[4] = system: humans; conditions: with the doses mentioned
[5] = system: granulocytopoiesis; conditions: animals and humans; compared with colchicine
[6] = system: birds
[7] = literature

In the case of O=c1cccccc1O [tropolone], the “antimitotic effect (mitotic or spindle poison)” value [1] is listed as “not a spindle poison but rather favors the formation of the spindle” and the antagonism of colchicine [1] is listed as “potent antagonist of colchicine”.
For COc1c(O[C@@H]2O[C@H](CO)[C@@H](O)[C@H](O)[C@H]2O)cc2c(c1OC)-c1ccc(OC)c(=O)cc1[C@@H](NC(C)=O)CC2 [colchicoside], the “anti-gout effect in acute attacks of gout” value (from here on “anti-gout effect”) [2] is listed as “equivocal results”.
For CN[C@H]1CCc2cc(OC)c(OC)c(OC)c2-c2ccc(OC)c(=O)cc21 [Desacetylmethylcolchicine], the effect on spermatogenesis [3] is given as “Impairment of spermatogenesis”, the alopecia [4] is given as “temporary total alopecia” and the effect on granulocytopoiesis [5] is given as “very depressing effect on granulocytopoiesis, much greater than colchicine”. For the same compound, the loss of feathers [6] was “loss of feathers”.
For O=C(CCc1ccc(O)cc1)c1c(O)cc(O)cc1O[C@@H]1O[C@H](CO)[C@@H](O)[C@H](O)[C@H]1O [Phlorizine], the “increase of the antimitotic effect of colchicine (synergist)” value ([1]; literature (H. R. Littre, et al. 1951)) is given as “eight times”.
For COc1cc2c(c(OC)c1OC)-c1ccc(OC)c(=O)cc1[C@@H](NC(C)=O)CC2 [Colchicine, colchicine], the “anti-gout effect” value [2] is listed as “dramatic relief of acute attacks of gout”.
For COc1cc2c(c(OC)c1OC)-c1ccc(=O)c(OC)cc1[C@@H](NC(C)=O)CC2 [Iso-colchicine], the “antimitotic effect (mitotic or spindle poison)” value [1] is given as “relatively ineffective as mitotic poisons”, the toxicity [7] is given as “relatively nontoxic” and the “anti-gout effect” value [2] is given as “little or no anti-gout effects”.
For O[C@H]1[C@H](O)[C@@H](O)[C@H](O)[C@@H](O)[C@H]1O [mesoinosital], the antagonism of colchicine [1] is listed as “potent antagonist of colchicine”.
In the case of COc1cc2c(c(OC)c1OC)-c1ccc(=O)c(O)cc1[C@@H](NC(C)=O)CC2 [colchiceine], the “antimitotic effect (mitotic or spindle poison)” value [1] is listed as “very weak antimitotic”, the diarrheal effect [7] is listed as “very weak” and the “anti-gout effect” value [2] is listed as “no anti-gout effects”.
